How the values were obtained:
adrenomedullin mRNA = assay: In vitro induction of adrenomedullin mRNA (real-time PCR, normalized to 18S rRNA); assay type: cell-based; conditions: Homo sapiens, Hep3B, 6 h, Hep3B cell line, relative to vehicle control
Protocol: Hep3B cell line (ATCC HB8064) was employed. […] At the end of 6 hours, cells were lysed and total RNA was isolated. Expression of adrenomedullin mRNA along-with expression of 18S rRNA was monitored by real-time PCR. Adrenomedullin mRNA expression was normalized relative to the expression of 18S rRNA. The results were expressed as fold induction of adrenomedullin mRNA relative to vehicle treated control.

erythropoietin = assay: In vitro erythropoietin induction (ELISA of cell culture supernatant); conditions: Homo sapiens, Hep3B, 16 h, read-out: EPO fold induction, Hep3B cell line, 200 uM, 16 hours, relative to vehicle control
Protocol: Hep3B cell line (ATCC HB8064) was employed. Induction of erythropoietin was carried out for the indicated dose of compounds for 16 hours duration. At the end of 16 hours, cell culture medium was collected and centrifuged to remove any debris. Supernatant obtained was analyzed for erythropoietin by ELISA (R&D systems, USA). The results were expressed as fold induction as compared to vehicle control.

VEGF = assay: In vitro induction of VEGF (ELISA of cell culture supernatant); assay type: cell-based; conditions: Homo sapiens, Hep3B cell line, 16 hours, relative to vehicle control
Protocol: Hep3B cell line (ATCC HB8064) was employed. […] Supernatant obtained was analyzed for VEGF by ELISA (R&D systems, USA). […]

[1] = tested on: renal ischemia and reperfusion induced acute kidney injury model in rats; assay: Renal ischemia and reperfusion induced acute kidney injury model; assay type: in vivo; conditions: 24hrs post initiation of ischemia, from control group
Protocol: The efficacy of test compound to improve renal function was evaluated in a renal ischemia and reperfusion induced acute kidney injury model in rats. The beneficial effect of the compound was evaluated using two different treatment protocols. In one protocol treatment with test compound was given before onset of ischemia (pre-treatment) and the other protocol involed treatment with test compound initiated after the onset of ischemia (post-treatment).
Pre-ischemia intervention protocol: Rats were randomised into two groups, compound treated and vehicle control. Before initiation of bilateral renal ischemia, the animals in compound treatment group received multiple doses of compound no. 10 (i.e. pre treated) and control group received vehicle by i.p route.
Post-ischemia intervention protocol: Rats were randomised into two groups, compound treated and vehicle control. After intiation of bilateral renal ischemia, the animals in compound treatment group received multiple doses of compound no. 10 (i.e. post treated) and control group received vehicle in similar fashion by i.p route.
Induction of Renal ischemia and reperfusion in rats: All animals were anesthetized with pentobarbital sodium (50 mg/kg body wt). Homeothermic blanket was used to maintain a constant body temperature of 37°C during surgery and ischemia. A midline incision was made at the ventral side to access the kidneys and both renal pedicle were isolated and occluded for 35 mins using microclips, which was verified by the change of the renal color. After an ischemic period of 35 min, the microclips were removed and reperfusion initiated. The abdomen was closed and skin & muscles sutured and animal allowed to recover. Blood sample of 300 µl was taken via sublingual vein puncture at various predetermined time points.
In both protocols tested i.e pre-ischemia intervention and post-ischemia intervention, renal function improvement was assessed by measuring serum creatinine and BUN (blood urea nitrogen) at various time points post ischemia. Results are expressed below as % reduction from their control group at 24hrs post initiation of ischemia.

[2] = tested on: 5/6 nephrectomized (5/6 NX) rats; assay: Anemia associated with chronic kidney disease, 5/6 nephrectomized rat model; assay type: in vivo; conditions: for fold increase in reticulocyte production index: compared to control group
Protocol: The efficacy of the test compound to correct anemia associated with CKD was studied in an animal model of anemia - 5/6 nephrectomized (5/6 NX) rats^15,16,17. Animals were randomized based upon anemia and kidney dysfunction parameters and divided into two groups. One group received compound-10 (20mg/kg; b.i.d. i.p) for seven days while the control received respective vehicle. Blood sampling was done on day 3 and 7 post initiation of drug administration to check early markers of anemia correction.

[3] = Post-ischemia intervention, i.p. 0.3mg/kg as 1st dose & 0.1mg/kg as subsequent dose
[4] = Pre-ischemia intervention, i.p. 10 mg/kg multiple dose
[5] = day 7 of treatment, 5/6 NX rats, 20mg/kg b.i.d. i.p, compared to control

Structure (SMILES) | fold induction at 200 µM (adrenomedullin mRNA) | fold induction at 200 µM (erythropoietin) | fold induction at 200 µM (VEGF) | % reduction BUN [1, 3] | % reduction Ser.Creatinine [1, 3] | % reduction BUN [1, 4] | % reduction Ser.Creatinine [1, 4] | circulating EPO levels ([2]; 5/6 NX rats, 20mg/kg b.i.d. i.p for seven days, vehicle control undetectable (<45 pg/ml)) | fold increase in reticulocyte production index ([2]; day 3, 5/6 NX rats, 20mg/kg b.i.d. i.p) | fold increase in reticulocyte production index ([2]; day 7, 5/6 NX rats, 20mg/kg b.i.d. i.p) | increase in erythrocyte count [2, 5] | increase in hematocrit percent [2, 5] | increase in hemoglobin content [2, 5]
O=C(O)CNC(=O)c1c(O)nc2sc3c(n2c1=O)CCCCC3 [Compound 10, [(2-Hydroxy-4-oxo-6,7,8,9-tetrahydro-4H,5H-10-thia-1,4a-diaza-benzo[a]azulene-3-carbonyl)-amino] -acetic acid] | > 8 | > 16 | 2 to 4 | 17.0% | 31.0% | 18.0% | 33.0% | 115 to 3900 pg/mL | 3 fold | 5.6 fold | 24% | 25% | 30%
O=C(O)CNC(=O)c1c(O)nc2sc3c(n2c1=O)CCN(Cc1ccc(Cl)cc1)C3 [Compound 23, {[7-(4-Chloro-benzyl)-2-hydroxy-4-oxo-5,6,7,8-tetrahydro-4H-9-thia-1,4a,7-triaza-fluorene-3-carbonyl]-amino}-acetic acid] | 2 to 4 | 9 to 16 | 2 to 4 | – | – | – | – | – | – | – | – | – | –
O=C(O)CNC(=O)c1c(O)nc2sc3c(n2c1=O)CCN(C(=O)CC1CC1)C3 [Compound 27, {[7-(2-Cyclopropyl-acetyl)-2-hydroxy-4-oxo-5,6,7,8-tetrahydro-4H-9-thia-1,4a,7-triaza-fluorene-3-carbonyl]-amino}-acetic acid] | > 8 | 9 to 16 | 2 to 4 | – | – | – | – | – | – | – | – | – | –
CC(NC(=O)c1c(O)nc2sc3c(n2c1=O)CCCCC3)C(=O)O (stereo not shown) [Compound 32, 2-[(2-Hydroxy-4-oxo-6,7,8,9-tetrahydro-4H,5H-10-thia-1,4a-diaza-benzo[a]azulene-3-carbonyl)-amino]-propionic acid] | 2 to 4 | 9 to 16 | 2 to 4 | – | – | – | – | – | – | – | – | – | –
CC1(C)CCc2c(sc3nc(O)c(C(=O)NCC(=O)O)c(=O)n23)C1 [Compound 34, [(2-Hydroxy-7,7-dimethyl-4-oxo-5,6,7,8-tetrahydro-4H-9-thia-1,4a-diaza-fluorene-3-carbonyl)-amino]-acetic acid] | 5 to 8 | > 16 | 2 to 4 | – | – | – | – | – | – | – | – | – | –

From patent EP2385948B1, “FUSED THIAZOLO AND OXAZOLO PYRIMIDINONES” (Torrent Pharmaceuticals Limited, priority 2009, dated 2011)
